Several values for one entry are separate records, joined by “and”; a condition that tells them apart may be missing. Equal values may be shown once. Entries after “also recorded” stand apart in the source; their conditions may differ. Read-outs that look alike come from different tables or passages of the source.
What was measured:
Format in all cases: physicochemical
[1] = Drug release from DC Bead LUMI in saline; details: for release in saline from DC Bead LUMI after multiple washes in deionized water: single replicates
Method: […] Briefly, drug-loaded DC Bead LUMI or LC Bead (62.5 µL) were placed in vessels with 50 mL of saline ([…], pH 7.4) and were agitated with upright rocking motion at a set maximum rocking speed of 10 (70 rpm) for 144 h at 37 °C using Ward's® Rotating Mixer. At scheduled time intervals identical to the loading time points, 1 mL of release media was withdrawn and used for drug quantification. To maintain 50 mL total elution volume, 1 mL of fresh saline pre heated to 37 °C was replaced at each timepoint. […] 2.4. The cumulative amount of drug released at each time point was calculated by multiplying the concentration of each sample aliquot by the total volume (50 mL) of release media and adding the sum of the amount of drug removed for sampling at prior time points. […] The 50 mL volume was chosen to ensure infinite sink conditions where the maximum possible concentration of eluted drug would be at least 10 times more dilute than the maximum solubility. This ensures the rate of release is not affected by solution concentration but is only a function of interactions of the bead, drug, and saline.

[2] = Drug loading into DC Bead LUMI
Method: DC Bead LUMI was analyzed for its elemental composition by MEDAC Inc. […] Drug loading was performed in triplicate as previously reported[45] with slight modifications. […] Washing of beads is often a critical step in drug release studies as any drug left unbound to the beads affects the release profile and exaggerates the early burst release. […] However, washing was discontinued for TLR drugs as drug was continually observed even after multiple washes. […] The amount of drug loaded at the specified time points was calculated by subtracting the amount of drug remaining from the initial amount of drug in the loading solution and the cumulative amount of drug withdrawn for sampling. The maximum drug loaded in the beads was calculated once no further change in the concentration in the loading solution could be measured and before washing the beads. The relative percent drug loaded was defined as the maximum amount of drug loaded as a percent of the amount of SO3^- ions available in the beads on a molar basis using the following formula and the results are presented as the mean ± SD.

[3] = pKa measurement by triple titration in methanol–water co-solvent with Yasuda-Shedlovsky extrapolation; details: for pKa: methanol–water co-solvent, aqueous value by Yasuda-Shedlovsky extrapolation; for psKa1 / psKa2: methanol–water
Method: pKa measurements were performed by Pion Inc, UK Ltd using known methods as previously reported[47]–[50] or calculated by using software MoKa (Molecular Discovery, Borehamwood, Hertfordshire, UK, https://www.moldiscovery.com/software/moka/#references) or directly obtained from the literature. For GARD and DSR 6434, a triple titration was carried out under methanol–water co-solvent conditions from pH 2.0–12.0 at concentrations of 2.3–1.3 mM (the methanol mixing ratio varied from 49.0 to 28.9% w/w) and 1.5–0.9 mM (the methanol mixing ratio varied from 49.6 to 29.1% w/w), respectively.

[4] = Washing of drug-loaded beads with deionized water and microscopic appearance
Method: Drug loading was performed in triplicate as previously reported[45] with slight modifications. […] Washing of beads is often a critical step in drug release studies as any drug left unbound to the beads affects the release profile and exaggerates the early burst release. […] However, washing was discontinued for TLR drugs as drug was continually observed even after multiple washes. […] The amount of drug loaded at the specified time points was calculated by subtracting the amount of drug remaining from the initial amount of drug in the loading solution and the cumulative amount of drug withdrawn for sampling. The maximum drug loaded in the beads was calculated once no further change in the concentration in the loading solution could be measured and before washing the beads. The relative percent drug loaded was defined as the maximum amount of drug loaded as a percent of the amount of SO3^- ions available in the beads on a molar basis using the following formula and the results are presented as the mean ± SD.

[5] = Drug solubilization by salt formation in acid; details: HPLC, two peaks observed
Method: The base form of each drug was suspended in deionized water and titrated with 0.1 N hydrochloric acid (Fisher Scientific, Hampton, NH) while stirring until all the base was solubilized and the volume adjusted to a final concentration of 2.5 mg/mL. The resulting solution was frozen, then lyophilized to yield solid drug-hydrochloride salt or used in its solubilized form for loading into DC Bead LUMI. […] Doxorubicin.HCl was readily solubilized and used without modification. […] A ZORBAX Eclipse Plus C8 reversed-phase column (Agilent) and UV detector at wavelength of 230 nm were used for GS-9620 analysis. The decomposition product of GS-9620 was analyzed with reversed phase high-performance liquid chromatography (Rp-HPLC) and LC/MS.

CCNCc1nc2c(N)nc3ccccc3c2n1CC(C)(C)O [GARD, gardiquimod]
release in saline from DC Bead LUMI after multiple washes in deionized water ([1]; 5 min): 13.8548 mg/mL of beads and 16.8316 mg/mL of beads and 16.696 mg/mL of beads
release in saline from DC Bead LUMI after multiple washes in deionized water ([1]; 15 min): 6.978 mg/mL of beads and 10.4756 mg/mL of beads and 7.4826 mg/mL of beads
release in saline from DC Bead LUMI after multiple washes in deionized water ([1]; 30 min): 11.5876 mg/mL of beads and 14.6655 mg/mL of beads and 10.6769 mg/mL of beads
release in saline from DC Bead LUMI after multiple washes in deionized water ([1]; 45 min): 12.1501 mg/mL of beads and 14.1614 mg/mL of beads and 16.9158 mg/mL of beads
release in saline from DC Bead LUMI after multiple washes in deionized water ([1]; 60 min): 12.3872 mg/mL of beads and 11.2006 mg/mL of beads and 10.7852 mg/mL of beads
release in saline from DC Bead LUMI after multiple washes in deionized water ([1]; 120 min): 6.495 mg/mL of beads and 18.2582 mg/mL of beads and 8.614 mg/mL of beads
release in saline from DC Bead LUMI after multiple washes in deionized water ([1]; 180 min): 13.4173 mg/mL of beads and 9.599 mg/mL of beads and 8.837 mg/mL of beads
release in saline from DC Bead LUMI after multiple washes in deionized water ([1]; 240 min): 11.2341 mg/mL of beads and 19.3333 mg/mL of beads and 19.2869 mg/mL of beads
release in saline from DC Bead LUMI after multiple washes in deionized water ([1]; 300 min): 11.4298 mg/mL of beads and 19.0264 mg/mL of beads and 20.0563 mg/mL of beads
release in saline from DC Bead LUMI after multiple washes in deionized water ([1]; 360 min): 14.8464 mg/mL of beads and 16.7671 mg/mL of beads and 17.7148 mg/mL of beads
release in saline from DC Bead LUMI after multiple washes in deionized water ([1]; 420 min): 10.7872 mg/mL of beads and 18.9583 mg/mL of beads and 16.16 mg/mL of beads
release in saline from DC Bead LUMI after multiple washes in deionized water ([1]; 480 min): 14.0597 mg/mL of beads and 15.9257 mg/mL of beads and 20.8469 mg/mL of beads
release in saline from DC Bead LUMI after multiple washes in deionized water ([1]; 1440 min): 16.384 mg/mL of beads and 22.102 mg/mL of beads and 14.1626 mg/mL of beads
release in saline from DC Bead LUMI after multiple washes in deionized water ([1]; 2880 min): 17.882 mg/mL of beads and 19.297 mg/mL of beads and 22.6822 mg/mL of beads
release in saline from DC Bead LUMI after multiple washes in deionized water ([1]; 4320 min): 17.16 mg/mL of beads and 21.3309 mg/mL of beads and 22.7224 mg/mL of beads
release in saline from DC Bead LUMI after multiple washes in deionized water ([1]; 8640 min): 16.9125 mg/mL of beads and 21.9345 mg/mL of beads and 17.7447 mg/mL of beads
release behaviour in saline ([1]; DC Bead LUMI): rapid release
Relative percent drug loaded in DC Bead LUMI over time ([2]; 5 min, single replicates): 55.2766% and 60.9514% and 46.1831%
Relative percent drug loaded in DC Bead LUMI over time ([2]; 15 min, single replicates): 43.0802% and 66.0616% and 55.143%
Relative percent drug loaded in DC Bead LUMI over time ([2]; 30 min, single replicates): 48.003% and 64.9413% and 48.1153%
Relative percent drug loaded in DC Bead LUMI over time ([2]; 45 min, single replicates): 42.5221% and 54.7578% and 59.077%
Relative percent drug loaded in DC Bead LUMI over time ([2]; 60 min, single replicates): 49.9393% and 67.8727% and 53.1769%
Relative percent drug loaded in DC Bead LUMI over time ([2]; 120 min, single replicates): 71.3739% and 70.6276% and 67.3547%
Relative percent drug loaded in DC Bead LUMI over time ([2]; 180 min, single replicates): 60.3259% and 72.9711% and 72.9791%
Relative percent drug loaded in DC Bead LUMI over time ([2]; 240 min, single replicates): 61.2934% and 72.504% and 74.4803%
Relative percent drug loaded in DC Bead LUMI over time ([2]; 300 min, single replicates): 61.9583% and 65.0576% and 73.7822%
Relative percent drug loaded in DC Bead LUMI over time ([2]; 360 min, single replicates): 62.1239% and 73.4051% and 73.7491%
Relative percent drug loaded in DC Bead LUMI over time ([2]; 420 min, single replicates): 57.6019% and 70.5665% and 69.0951%
Relative percent drug loaded in DC Bead LUMI over time ([2]; 480 min, single replicates): 60.233% and 70.8296% and 71.2658%
Relative percent drug loaded in DC Bead LUMI over time ([2]; 1440 min, single replicates): 61.7405% and 70.3053% and 72.3473%
Relative percent drug loaded in DC Bead LUMI over time ([2]; 2880 min, single replicates): 58.2466% and 69.7502% and 67.5798%
Relative percent drug loaded in DC Bead LUMI over time ([2]; 4320 min, single replicates): 62.5088% and 74.175% and 74.3147%
Relative percent drug loaded in DC Bead LUMI over time ([2]; 8640 min, single replicates): 62.7357% and 73.7536% and 73.1477%
loading behaviour ([2]; DC Bead LUMI): Fast loading
Relative percent drug loaded (maximum, percent of SO3− available on a molar basis) ([2]; DC Bead LUMI, mean (n = 3)): 73% and 73.34%
equivalent of drug loaded to sulfonated bead ([2]; DC Bead LUMI, mean ± SD): 0.21 ± 0.00 mM drug/ml beads
Maximum drug loaded ([2]; DC Bead LUMI, mean ± SD, n = 3, base form except Dox (salt form)): 65.97 ± 1.54 mg drug/ml beads
Maximum drug loaded (Triplicate), % ([2]; DC Bead LUMI, single replicates): 71.3739% and 74.175% and 74.4803%
Drug: sulfonate ([2]; molar ratio at maximum loading, DC Bead LUMI): 0.733
Theoretical maximum loading level based on SO3− contents ([2]; per mL DC Bead LUMI, assuming 1:1 drug to sulfonate): 89.95 mg
pKa ([3]; read-out: pKa (first, measured)): 7.02
pKa ([3]; read-out: pKa (second, measured)): 8.02
psKa1 ([3]; dielectric constant 56.8): 6.81
psKa2 ([3]; dielectric constant 56.8): 7.83
psKa1 ([3]; dielectric constant 61.6): 6.89
psKa2 ([3]; dielectric constant 61.6): 7.88
psKa1 ([3]; dielectric constant 66): 6.92
psKa2 ([3]; dielectric constant 66): 7.94
removal of drug from beads by repeated washing with deionized water ([4]; DC Bead LUMI): partially removed
aggregation of drug during washing / elution ([4]; deionized water and saline, microscopy): absence of aggregated

CCCCOc1nc(N)c2c(n1)N(Cc1cccc(CN3CCCC3)c1)CC(=O)N2 [GS-9620]
stability in the solubilizing conditions [5]: partially decomposed; also recorded: not stable

Source: article PMC9763333, “In vitro characterization of immune modulating drug-eluting immunobeads towards transarterial embolization in cancer” (Scientific Reports, 2022)
